{"source": "patent US20190290623A1", "about": "“USE OF TIOTROPIUM BROMIDE TO PREVENT PULMONARY OXYGEN TOXICITY” (priority 2018, published 2019)", "format_in_all_cases": "in vivo", "key": {"[1]": {"test_system": "swine exposed to 2.5 ATA hyperbaric oxygen for 5.5 hr", "assay": "Experiment 2: lung wet-dry ratio", "settings": "2.5 ATA O2 5.5 hr; n=13; mean ± SEM; p=0.4566 vs saline", "source_text": "Lungs were collected from the swine during necropsy. The right lung was collected for measurement of wet-dry ratios. The left lung was fixed via tracheal instillation at a standard pressure of 25 cmH2O with 10% neutral buffered formalin (NBF). The lungs were then sectioned into ten, one centimeter (cm) cranial to caudal serial sections. Three, 1 cm blocks were cut from each section and post-fixed in 10% NBF, trimmed, embedded in paraffin and cut into 5 μm sections for histological staining. Histology slides were de-paraffinized and stained with hematoxylin and eosin. A board-certified veterinary pathologist blinded to group randomization reviewed all gross necropsies, images, and histology slides.\nAll data were compiled into Excel spreadsheets then imported into Graphpad Prism 7.02 for statistical analysis. […] To allow for accurate data comparison between animals and/or groups the pressure volume curves were separated into inspiratory arms (0 to 40 cm H2O) and expiratory arms (40 to −40 cm H2O). Each arm was then fit using a non-linear regression utilizing a Gaussian distribution model. Volume data was then extrapolated from the curve corresponding to pressures from 0 to 40 cmH2O at 2.5 cm H2O increments. Statistical group-wise comparison of the extrapolated inspiratory and expiratory arms were conducted using repeated measures two-way ANOVA. […]"}, "[2]": {"test_system": "swine exposed to 1.5 ATA hyperbaric oxygen for 17.5 hr", "assay": "Experiment 1: adverse effects observation", "procedure": "Next, the swine were switched to 100% oxygen breathing gas and remained at 1.5 ATA for 17.5 hr. At the end of the 17.5 hour 1.5 ATA oxygen exposure, swine surfaced at a rate of 1 ATA/minutes (ATA/min), were transferred to a Panepinto sling, sedated with diazepam (1.5-2.0 mg/kg, I.V) and reassessed via impulse Oscillometry. The swine were again anesthetized with propofol and intubated. When fully sedated, the swine were ventilated, paralyzed with Atracurium Besylate, and post-dive measurements of pulmonary function were recorded. During all phases of study the swine were continuously monitored for signs of seizure or distress.\nOnce measurements were complete, animals were then euthanized by intravenous infusion of euthanasia solution (Euthasol 1-1.5 ml/10 lbs. body weight) and transported to the necropsy suite for post-mortem sample collection."}, "[3]": {"test_system": "swine exposed to 1.5 ATA hyperbaric oxygen for 17.5 hr", "assay": "Experiment 1 shallow exposure simulation: Impulse Oscillometry (IOS)", "settings": "1.5 ATA O2 17.5 hr, 18 mcg nebulized pre-dive, post-dive normalized to baseline, n=7/arm", "procedure": "(§1) Experiment 1 is designed to evaluate the efficacy of tiotropium bromide administered pre-dive in reducing decrements in pulmonary function due to PO2T following a 17.5 hour, 1.5 ATA hyperbaric oxygen exposure. This dive profile was selected because it was of sufficient duration to elicit persistent pulmonary function decrement in humans.\n(§2) The swine were anesthetized with propofol (20 cc, I.V. target, adjusted as needed to optimize sedation), intubated and ventilated. Anesthetized swine were shaved, then ECG and EEG electrodes were placed. Animals were then paralyzed with Atracurium Besylate (50 mg, IV) for accurate pulmonary function measurements of quasi-static and dynamic compliance.\n(§3) Following baseline pulmonary function measurements, the swine were randomized to receive equivalent volumes of normal saline or tiotropium bromide (18 mcg) via nebulizer. The swine were then ventilated until muscle tone was regained. […]\n(§4) Next, the swine were switched to 100% oxygen breathing gas and remained at 1.5 ATA for 17.5 hr. […] When fully sedated, the swine were ventilated, paralyzed with Atracurium Besylate, and post-dive measurements of pulmonary function were recorded. During all phases of study the swine were continuously monitored for signs of seizure or distress. […]"}, "[4]": {"test_system": "swine exposed to 1.5 ATA hyperbaric oxygen for 17.5 hr", "assay": "Experiment 1 shallow exposure simulation: pulmonary compliance", "settings": "1.5 ATA O2 17.5 hr; 18 mcg nebulized pre-dive; n=7; p=0.8364", "procedure": "as §1, §2, §3, §4"}}}
{"molecule": "C[N+]1(C)[C@@H]2C[C@@H](OC(=O)C(O)(c3cccs3)c3cccs3)C[C@H]1[C@@H]1O[C@@H]12", "note": "[Tiotropium, tiotropium bromide]", "values": [{"measurement": "Wet-Dry ratios of lung", "setting": "[1]", "value": "6.067±0.2305"}, {"measurement": "adverse effect on outcome at any of the assessed endpoints", "setting": "[2]; 1.5 ATA O2 17.5 hr, 18 mcg nebulized pre-dive", "value": "no observable adverse effect"}, {"measurement": "adverse reactions (including seizure)", "setting": "[2]; 1.5 ATA oxygen exposure", "value": "no adverse reactions"}, {"measurement": "IOS resistance, Tiotropium treated animals vs saline controls", "setting": "[3]; p=0.172", "value": "no significant differences"}, {"measurement": "IOS reactance, Tiotropium treated animals vs saline controls", "setting": "[3]; p=0.65", "value": "no significant differences"}, {"measurement": "pulmonary compliance, baseline vs post-dive", "setting": "[4]", "value": "no significant changes"}]}
